From patent US20240101528A1, “SUBSTITUTED PYRAZOLO PIPERIDINE CARBOXYLIC ACIDS” (BAYER AKTIENGESELLSCHAFT, priority 2020, published 2024)
Counter-ions that a name gives are not always drawn.

Target: T1, recombinant guanylate cyclase reporter cell line (Rattus norvegicus, UniProt P20595)
T1 construct: expressed in transfected cells
T1 sequence (P20595 1-619): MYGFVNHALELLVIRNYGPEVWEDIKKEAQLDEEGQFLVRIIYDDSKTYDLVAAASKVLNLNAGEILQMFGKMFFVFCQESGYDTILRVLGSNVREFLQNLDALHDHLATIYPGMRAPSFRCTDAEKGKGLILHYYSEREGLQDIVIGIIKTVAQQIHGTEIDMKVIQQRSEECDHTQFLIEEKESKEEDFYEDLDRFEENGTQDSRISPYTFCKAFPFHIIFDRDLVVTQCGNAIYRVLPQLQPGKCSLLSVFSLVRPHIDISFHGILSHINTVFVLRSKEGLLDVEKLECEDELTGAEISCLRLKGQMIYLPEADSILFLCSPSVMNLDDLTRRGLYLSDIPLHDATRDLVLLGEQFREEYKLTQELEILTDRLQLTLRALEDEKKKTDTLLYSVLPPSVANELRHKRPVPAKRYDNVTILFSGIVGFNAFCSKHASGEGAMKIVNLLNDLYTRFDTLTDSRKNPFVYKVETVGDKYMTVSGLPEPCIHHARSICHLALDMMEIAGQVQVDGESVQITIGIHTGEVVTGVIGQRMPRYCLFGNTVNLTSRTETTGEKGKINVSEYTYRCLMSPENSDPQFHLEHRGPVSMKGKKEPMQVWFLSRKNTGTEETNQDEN
T1 sequence (P19686 1-690 partner): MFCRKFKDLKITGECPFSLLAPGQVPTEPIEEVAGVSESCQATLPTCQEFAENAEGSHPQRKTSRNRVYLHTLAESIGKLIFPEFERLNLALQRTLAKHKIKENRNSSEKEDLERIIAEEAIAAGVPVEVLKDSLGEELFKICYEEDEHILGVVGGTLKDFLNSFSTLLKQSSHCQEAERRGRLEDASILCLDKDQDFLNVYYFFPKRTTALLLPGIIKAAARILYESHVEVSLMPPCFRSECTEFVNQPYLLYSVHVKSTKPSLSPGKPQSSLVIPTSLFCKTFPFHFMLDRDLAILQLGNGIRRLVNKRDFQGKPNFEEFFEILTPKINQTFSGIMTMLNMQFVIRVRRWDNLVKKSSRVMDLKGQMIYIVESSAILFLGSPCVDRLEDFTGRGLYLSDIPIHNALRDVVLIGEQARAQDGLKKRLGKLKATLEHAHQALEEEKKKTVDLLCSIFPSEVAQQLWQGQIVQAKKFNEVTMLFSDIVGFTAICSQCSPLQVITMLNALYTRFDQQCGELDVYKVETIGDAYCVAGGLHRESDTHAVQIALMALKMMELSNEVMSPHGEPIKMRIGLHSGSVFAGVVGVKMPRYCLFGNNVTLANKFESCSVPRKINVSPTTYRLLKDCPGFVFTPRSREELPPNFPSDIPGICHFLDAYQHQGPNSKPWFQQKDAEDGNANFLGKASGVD
Experiment: Effect on a recombinant guanylate cyclase reporter cell line
Assay type: cell-based
Settings: for EC50: half maximal effective concentration; for MEC: minimum effective concentration
Protocol: B-1. Effect on a Recombinant Guanylate Cyclase Reporter Cell Line
The cellular activity of the compounds according to the invention was determined using a recombinant guanylate cyclase reporter cell line, as described in F. Wunder et al., Anal. Biochem. 339, 104-112 (2005).

SMILES	EC50 [nM]	MEC [nM]
O=C(O)c1cnn(C2CCCN(c3cc(Cl)ccc3-c3cnc(N4CCN(CC5CC5)CC4)nc3)C2)c1C(F)F (single isomer, unassigned; enantiomer 2) [Example 72, 1-[1-(5-Chloro-2-{2-[4-(cyclopropylmethyl)piperazin-1-yl]pyrimidin-5-yl}phenyl)piperidin-3-yl]-5-(difluoromethyl)-1H-pyrazole-4-carboxylic acid hydrochloride (Enantiomer 2)]	18	3.0
CC(C)CN1CCN(c2ccc(-c3ccc(Cl)cc3N3CC(n4ncc(C(=O)O)c4C(F)F)CC(F)(F)C3)cc2)CC1 (single isomer, unassigned; enantiomer 2) [Example 55, 1-{1-[4-Chloro-4′-(4-isobutylpiperazin-1-yl)[biphenyl]-2-yl]-5,5-difluoropiperidin-3-yl}-5-(difluoromethyl)-1H-pyrazole-4-carboxylic acid hydrochloride (Enantiomer 2)]	56.5	10.0
CC(C)CC(=O)N1CCN(c2ccc(-c3ccc(Cl)cc3N3CCCC(n4ncc(C(=O)O)c4C(F)F)C3)cc2)CC1 (single isomer, unassigned; enantiomer 2) [Example 51, 1-(1-{4-Chloro-4′-[4-(3-methylbutanoyl)piperazin-1-yl][biphenyl]-2-yl}piperidin-3-yl)-5-(difluoromethyl)-1H-pyrazole-4-carboxylic acid (Enantiomer 2)]	28.4	3.0
O=C(O)c1cnn(C2CCCN(c3cc(Cl)ccc3-c3ccc(N4CCN(CC(F)(F)F)CC4)nc3)C2)c1C(F)F (single isomer, unassigned; enantiomer 2) [Example 65, 1-[1-(5-Chloro-2-{6-[4-(2,2,2-trifluoroethyl)piperazin-1-yl]pyridin-3-yl}phenyl)piperidin-3-yl]-5-(difluoromethyl)-1H-pyrazole-4-carboxylic acid hydrochloride (Enantiomer 2)]	6.9	1.0
O=C(O)c1cnn(C2CCCN(c3cc(Cl)ccc3-c3ccc(N4CCN(CCC(F)F)CC4)cc3)C2)c1C(F)F (single isomer, unassigned; enantiomer 2) [Example 22, 1-(1-{4-Chloro-4′-[4-(3,3-difluoropropyl)piperazin-1-yl][biphenyl]-2-yl}piperidin-3-yl)-5-(difluoromethyl)-1H-pyrazole-4-carboxylic acid hydrochloride (Enantiomer 2)]	1	<0.3
CC(F)(F)CN1CCN(c2ccc(-c3ccc(Cl)cc3N3CCCC(n4ncc(C(=O)O)c4C(F)F)C3)cc2)CC1 (single isomer, unassigned; enantiomer 1) [Example 24, 1-(1-{4-Chloro-4′-[4-(2,2-difluoropropyl)piperazin-1-yl][biphenyl]-2-yl}piperidin-3-yl)-5-(difluoromethyl)-1H-pyrazole-4-carboxylic acid hydrochloride (Enantiomer 1)]	1.8	0.3
O=C(O)c1cnn(C2CCCN(c3cc(Cl)ccc3-c3ccc(N4CCN(C[C@H]5C[C@H]5F)CC4)cc3)C2)c1C(F)F (single isomer, unassigned; stereoisomer 2) [Example 37]	2.1	1.0
CCN1CCN(c2ccc(-c3ccc(Cl)cc3N3CC(n4ncc(C(=O)O)c4C(F)F)CC(F)(F)C3)cc2)CC1 (single isomer, unassigned; enantiomer 2) [Example 53, 1-{1-[4-chloro-4′-(4-ethylpiperazin-1-yl)[biphenyl]-2-yl]-5,5-difluoropiperidin-3-yl}-5-(difluoromethyl)-1H-pyrazole-4-carboxylic acid hydrochloride (Enantiomer 2)]	34	10.0
O=C(O)c1cnn(C2CCCN(c3cc(Cl)ccc3-c3ccc(C4CN(CC(F)(F)F)C4)cc3)C2)c1C(F)F (single isomer, unassigned; enantiomer 2) [Example 58, 1-(1-{4-Chloro-4′-[1-(2,2,2-trifluoroethyl)azetidin-3-yl][biphenyl]-2-yl}piperidin-3-yl)-5-(difluoromethyl)-1H-pyrazole-4-carboxylic acid hydrochloride (Enantiomer 2)]	31.5	3.0

Continued by falling EC50, values first:

EC50 [nM]	MEC [nM]	SMILES
68	10.0	O=C(O)c1cnn(C2CCCN(c3cc(Cl)ccc3-c3ccc(N4CCN(CC5CC5)CC4)nc3)C2)c1C(F)F (single isomer, unassigned; enantiomer 2) [Example 63, 1-[1-(5-Chloro-2-{6-[4-(cyclopropylmethyl)piperazin-1-yl]pyridin-3-yl}phenyl)piperidin-3-yl]-5-(difluoromethyl)-1H-pyrazole-4-carboxylic acid hydrochloride (Enantiomer 2)]
24.6	3.0	CCN1CCN(c2ccc(-c3ccc(Cl)cc3N3CCCC(n4ncc(C(=O)O)c4C(F)F)C3)cc2)CC1 (single isomer, unassigned; enantiomer 1) [Example 3, 1-{1-[4-Chloro-4′-(4-ethylpiperazin-1-yl)[biphenyl]-2-yl]piperidin-3-yl}-5-(difluoromethyl)-1H-pyrazole-4-carboxylic acid hydrochloride (Enantiomer 1)]
13.9	3.0	CC(C)(F)C(=O)N1CCN(c2ccc(-c3ccc(Cl)cc3N3CCCC(n4ncc(C(=O)O)c4C(F)F)C3)cc2)CC1 (single isomer, unassigned; enantiomer 2) [Example 49, 1-(1-{4-Chloro-4′-[4-(2-fluoro-2-methylpropanoyl)piperazin-1-yl][biphenyl]-2-yl}piperidin-3-yl)-5-(difluoromethyl)-1H-pyrazole-4-carboxylic acid (Enantiomer 2)]
11.8	1.0	O=C(O)c1cnn(C2CCCN(c3cc(Cl)ccc3-c3ccc(N4CCN(CC5(C(F)(F)F)CC5)CC4)cc3)C2)c1C(F)F (single isomer, unassigned; enantiomer 2) [Example 40, 1-{1-[4-Chloro-4′-(4-{[1-(trifluoromethyl)cyclopropyl]methyl}piperazin-1-yl) [biphenyl]-2-yl]piperidin-3-yl}-5-(difluoromethyl)-1H-pyrazole-4-carboxylic acid hydrochloride (Enantiomer 2)]
7.5	3.0	CC(C)CN1CCN(c2ccc(-c3ccc(Cl)cc3N3CCCC(n4ncc(C(=O)O)c4C(F)F)C3)cn2)CC1 (single isomer, unassigned; enantiomer 2) [Example 62, 1-(1-{5-Chloro-2-[6-(4-isobutylpiperazin-1-yl)pyridin-3-yl]phenyl}piperidin-3-yl)-5-(difluoromethyl)-1H-pyrazole-4-carboxylic acid hydrochloride (Enantiomer 2)]
1.5	1.0	CCC(=O)N1CCC(c2ccc(-c3ccc(Cl)cc3N3CCCC(n4ncc(C(=O)O)c4C(F)F)C3)cc2)CC1 (single isomer, unassigned; enantiomer 2) [Example 56, 1-{1-[4-Chloro-4′-(1-propanoylpiperidin-4-yl)[biphenyl]-2-yl]piperidin-3-yl}-5-(difluoromethyl)-1H-pyrazole-4-carboxylic acid hydrochloride (Enantiomer 2)]
1	<0.3	O=C(O)c1cnn(C2CCCN(c3cc(Cl)ccc3-c3ccc(N4CCN(CCC(F)(F)F)CC4)cc3)C2)c1C(F)F (single isomer, unassigned; enantiomer 2) [Example 23, 1-(1-{4-Chloro-4′-[4-(3,3,3-trifluoropropyl)piperazin-1-yl][biphenyl]-2-yl}piperidin-3-yl)-5-(difluoromethyl)-1H-pyrazole-4-carboxylic acid hydrochloride (Enantiomer 2)]
